Test results reported in patent US4415566A, “Cephalosporin derivatives” (Boehringer Ingelheim GmbH, priority 1979, dated 1983).
≈ marks a conversion by molar mass, not a printed value. Read-outs that look alike come from different tables or passages of the source.

How the values were obtained:
Proteus rettgeri = test: Serial dilution test in the microtiter system (MIC), Prot. rettgeri; type: cell-based; details: Providencia rettgeri
Protocol: (§1) These tests were performed according to the method of the serial dilution test in the microtiter system. The effect of the substances on bacteriostasis was examined in a fluid medium. […] A nutrient medium of the following composition was used. 10 gm of peptone, 8 gm of meat extract-oxoid, 3 gm of sodium chloride, 2 gm of sec. sodium phosphate were diluted with distilled water to […] (pH 7.2-7.4). Only in the test against streptococci 1% of glucose was added. The age of the primary cultures was about 20 hours. The standardization of the pathogen suspension was effected by using a photometer according to "Eppendorf" (test tube dismeter 14 mm, filter 546 nm) with the aid of the turbidity of a comparison suspension consisting of barium sulfate, this suspension being prepared by addition of 3.0 ml of 1% barium chloride solution to 97 ml of 1% sulfuric acid. After the standardization, streptococcus aronson were further diluted to a concentration of 1:15 and the other microorganisms to a concentration of 1:1500 by means of a sodium chloride solution.
(§2) 16 mg of the test substance were put into a 10 ml-measuring flask and filled up to the mark with the solvent. The further dilution series was standardized with distilled water or the respective solvent.
(§3) The cavities of the microtiter plates were filled with 0.2 ml of nutrient medium. Then, 0.01 ml of the corresponding test substance dilution was added and inoculated with 0.01 ml of the standardized suspension. The bacteria were incubated at 37° C. for 18-20 hours. Control tests merely using the solvent were carried out simultaneously.
(§4) The measurement was carried out macroscopically to determine the minimal inhibitory (threshold) concentration, i.e. the lower still bacteriostatically effective concentration.
(§5) Staphylococcus aureus SG 511, Escherichia coli ATCC 11 775, Pseudomonas aeruginosa Hamburgensis and Pseudomonas aeruginosa Walter, Serratia marcescens ATCC 13880, Klebsiella pneumoniae ATCC 10 031 and 272, Proteus mirabilis Hamburgensis, Proteus rettgeri, Enterbacter cloaceae ATCC 13 047 and E. Coli R+TEM (β-lactamase carrier).

[1] = test system: Pseudomonas aeruginosa Hamburgensis; test: Serial dilution test in the microtiter system (MIC), Pseud. aerug. Hbg.; type: cell-based
Protocol: as §1, §2, §3, §4, §5

[2] = test system: Proteus mirabilis Hamburgensis; test: Serial dilution test in the microtiter system (MIC), Prot. mirabilis; type: cell-based
Protocol: as §1, §2, §3, §4, §5

[3] = test system: Pseudomonas aeruginosa Walter; test: Serial dilution test in the microtiter system (MIC), Pseud. aerug. Walter; type: cell-based
Protocol: as §1, §2, §3, §4, §5

[4] = test system: Serratia marcescens ATCC 13880; test: Serial dilution test in the microtiter system (MIC), Serrat. marcesc. ATCC 13880; type: cell-based
Protocol: as §1, §2, §3, §4, §5

E. coli ATCC 11775 = test: In vivo activity in mice, E. coli infection; design: species or system Female NMRI mice; details: Escherichia coli, ATCC11775, iPSC, sc, 168 h; E. coli infection i.p.; s.c. administration; per dose; observation 7 days; read-out: ED50 (dose at which 50% of the animals survived)
Protocol: (§6) A number of compounds of this invention were tested in vivo in mice against experimental infections. Bacteria E. coli ATCC 11775 and Psuedomonas aeruginosa Walter were used as pathogens. An intraperitoneal infection with 0.2 ml of a 5% suspension of the bacteria was induced. This corresponds to about 2×10^6 E. Coli germs and 8×10^5 pseudomonas germs/mouse. […] The groups with E. coli infection were treated with the test compound three times on the first day (1, 4, and 7 hours post infectionem) and for two days thereafter twice a day. The groups with the pseudomonas infection were treated with the test compound 6 times on the first day (1, 3, 6, 9, 12 and 15 hours post infectionem) and for two days thereafter twice a day. The observation time was in both cases 7 days. The results of these tests with representatives of the penicillins and cephalosporins according to the invention are shown in the following table: […]

[5] = test system: Klebsiella pneumoniae 272; test: Serial dilution test in the microtiter system (MIC), Klebs. pneum. 272; type: cell-based
Protocol: as §1, §2, §3, §4, §5

[6] = test system: Escherichia coli ATCC 11 775; test: Serial dilution test in the microtiter system (MIC), E. Coli ATCC 11775; type: cell-based
Protocol: as §1, §2, §3, §4, §5

[7] = test system: Enterbacter cloaceae ATCC 13 047; test: Serial dilution test in the microtiter system (MIC), Eb. cloaceae ATCC 13047; type: cell-based
Protocol: as §1, §2, §3, §4, §5

[8] = test system: Psuedomonas aeruginosa Walter; test: In vivo activity in mice, Pseudomonas infection; design: species or system Female NMRI mice; details: Mus musculus, iPSC, sc, 168 h; Pseudomonas infection i.p.; s.c. administration; per dose; observation 7 days; read-out: ED50 (dose at which 50% of the animals survived)
Protocol: as §6

E. Coli ATCC 9637 = test: Serial dilution test in the microtiter system (MIC), E. Coli ATCC 9637; type: cell-based; details: Escherichia coli, ATCC9637
[9] = test system: Klebsiella pneumoniae ATCC 10 031; test: Serial dilution test in the microtiter system (MIC), Klebs. pneum. ATCC 10031; type: cell-based
Protocol: as §1, §2, §3, §4, §5

[10] = Table III, Prot. rettgeri, 37° C., 18-20 hours, read-out: MIC
[11] = Table III, E. Coli ATCC 11775, 37° C., 18-20 hours, read-out: MIC
[12] = Table III, Prot. mirabilis, 37° C., 18-20 hours, read-out: MIC
[13] = Table III, Pseud. aerug. Walter, 37° C., 18-20 hours, read-out: MIC
[14] = ATCC13880, Table III, Serrat. marcesc. ATCC 13880, 37° C., 18-20 hours, read-out: MIC
[15] = Table III, Eb. cloaceae ATCC 13047, 37° C., 18-20 hours, read-out: MIC
[16] = Table III, E. Coli ATCC 9637, 37° C., 18-20 hours, read-out: MIC

Structure (SMILES) | MIC [1] [µg/mL] | MIC [3] [µg/mL] | ED50 (E. coli ATCC 11775) [mg/kg] | MIC [5]; 272 [µg/mL] | MIC (Proteus rettgeri; [10]) [µg/mL] | MIC [6, 11] [µg/mL] | MIC [2, 12] [µg/mL] | MIC [3, 13] [µg/mL] | MIC [7] [µg/mL] | MIC [4, 14] [µg/mL] | ED50 [8] [mg/kg] | MIC (E. Coli ATCC 9637) [µg/mL] | MIC [9] [µg/mL] | MIC (Proteus rettgeri) [µg/mL] | MIC [6] [µg/mL] | MIC [2] [µg/mL] | MIC [7, 15] [µg/mL] | MIC (E. Coli ATCC 9637; [16]) [µg/mL] | also measured
Cn1nnnc1SCC1=C(C(=O)O)N2C(=O)[C@@H](NC(=O)C(NC(=O)Nc3cnc(NCc4ccco4)nc3O)c3cccs3)[C@H]2SC1 (single isomer, unassigned) [M] | 8 (≈ 11.4 µM) | 4 (≈ 5.72 µM) | 0.8 | 0.5 (≈ 0.715 µM) |  |  |  |  |  |  |  |  |  |  |  |  |  |  | MIC (Proteus rettgeri; Table IV, Prot. rettg., 37° C., 18-20 hours, read-out: MIC): 0.5 µg/mL (≈ 0.715 µM); MIC ([2]; Table IV, Prot. mir. Hbg., 37° C., 18-20 hours, read-out: MIC): 0.12 µg/mL (≈ 0.171 µM); MIC ([4]; ATCC13880, Table IV, Serr. marcesc. ATCC 13880, 37° C., 18-20 hours, read-out: MIC): 0.5 µg/mL (≈ 0.715 µM)
CC1(C)S[C@@H]2[C@H](NC(=O)[C@H](NC(=O)Nc3cnc(NCc4cccnc4)nc3O)c3ccc(O)cc3)C(=O)N2[C@H]1C(=O)O [A, D-α-{3-[4-Hydroxy-2-(3'-pyridylmethylamino)-5-pyrimidinyl]-ureido}-p-hydroxy-benzyl-penicillin sodium] |  |  | 0.7 | 8 | 1 | 0.5 | 0.12 | 1 | 4 | 0.5 | 1.2 | 0.5 | 8 |  |  |  |  |  | 
CC1(C)S[C@@H]2[C@H](NC(=O)[C@H](NC(=O)N3CCNC3=O)c3ccccc3)C(=O)N2[C@H]1C(=O)O [Azlocillin, reference compound] | 8 (≈ 17.3 µM) | 8 (≈ 17.3 µM) | ~35 |  |  |  |  |  |  |  | ~110 |  |  | 8 (≈ 17.3 µM) | 8 (≈ 17.3 µM) | 2 (≈ 4.33 µM) | 32 (≈ 69.3 µM) | 16 (≈ 34.7 µM) | MIC ([4]; ATCC13880): 4 µg/mL (≈ 8.67 µM); MIC ([5]; Table III, Klebs. pneum. 272, 37° C., 18-20 hours, read-out: MIC): 32 µg/mL (≈ 69.3 µM); MIC ([9]; Table III, Klebs. pneum. ATCC 10031, 37° C., 18-20 hours, read-out: MIC): 32 µg/mL (≈ 69.3 µM)
CC1(C)S[C@@H]2[C@H](NC(=O)[C@H](NC(=O)Nc3cnc(Nc4ccc(C(N)=O)s4)nc3O)c3ccc(O)cc3)C(=O)N2[C@H]1C(=O)O [B, D-α-{3-[2-(5'-Aminocarbonyl-2'-thienylamino)-4-hydroxy-5-pyrimidinyl]-ureido}-p-hydroxy-benzyl-penicillin sodium] |  |  | 1.3 | 2 | 0.5 |  | 0.06 | 1 | 2 | 0.2 | 4.8 |  | 2 |  | 0.25 |  |  | 0.5 | MIC ([1]; Table III, Pseud. aerug. Hbg., 37° C., 18-20 hours, read-out: MIC): 1 µg/mL
CC1(C)S[C@@H]2[C@H](NC(=O)[C@H](NC(=O)Nc3cnc(NCc4cccs4)nc3O)c3ccc(O)cc3)C(=O)N2[C@H]1C(=O)O [C, D-α-{3-[4-Hydroxy-2-(2'-thienylmethylamino)-5-pyrimidinyl]-ureido}-p-hydroxy-benzyl-penicillin sodium] | 2 | 1 | 0.8 | 2 |  | 0.5 |  |  |  | 0.5 | 2.5 | 0.5 | 2 | 0.12 |  | 0.25 | 0.5 |  | 
